This test relates to HEK293T cells carrying the ATF4 luciferase reporter. Kind of test: ATF4-Luc assay (in vitro model of VWMD). The note with it: Homo sapiens, HEK-293T; HEK293T cells with ATF4 5'-UTR firefly luciferase reporter; 1 μg/mL tunicamycin; 7 hours; One Glo luminescence. The test is classed as cell-based. The protocol:
In order to test exemplary compounds of the invention in a cellular context, a stable VWMD cell line was first constructed. The ATF4 reporter was prepared by fusing the human full-length ATF4 5′-UTR (NCBI Accession No. BC022088.2) in front of the firefly luciferase (FLuc) coding sequence lacking the initiator methionine as described in Sidrauski et al (eLife 2013). The construct was used to produce recombinant retroviruses using standard methods and the resulting viral supernatant was used to transduce HEK293T cells, which were then subsequently selected with puromycin to generate a stable cell line.
HEK293T cells carrying the ATF4 luciferase reporter were plated on polylysine coated 384-well plates (Greiner Bio-one) at 30,000 cells per well. Cells were treated the next day with 1 μg/mL tunicamycin and 200 nM of a compound of Formula (I) for 7 hours. Luminescence was measured using One Glo (Promega) as specified by the manufacturer. Cells were maintained in DMEM with L-glutamine supplemented with 10% heat-inactivated FBS (Gibco) and Antibiotic-Antimycotic solution (Gibco).
Table 2 below summarizes the EC50 data obtained using the ATF4-Luc assay for exemplary compounds of the invention.

SMILES strings stand for the structures. Some results are limits rather than exact numbers.

With `O=C(COc1ccc(Cl)c(F)c1)N[C@H]1CC[C@H](C(=O)N2CCN(c3ccc(Cl)cc3)C(=O)C2)CC1` [Compound 125, 2-(4-chloro-3-fluorophenoxy)-N-{(1r,4r)-4-[4-(4-chlorophenyl)-3-oxopiperazine-1-carbonyl]cyclohexyl}acetamide], the EC50 was 250 to 500 nM. As to `O=C(COc1ccc(Cl)c(F)c1)N[C@H]1CC[C@H](C(=O)N2CCN(c3cccc(Cl)c3)C(=O)C2)CC1` [Compound 126, 2-(4-chloro-3-fluorophenoxy)-N-{(1r,4r)-4-[4-(3-chlorophenyl)-3-oxopiperazine-1-carbonyl]cyclohexyl}acetamide], the EC50 was in the range of 500 to 2000 nM. `O=C(COc1ccc(Cl)c(F)c1)N[C@H]1CC[C@H](C(=O)N2CCN(c3ccc(Cl)cc3)CC2)CC1` [Compound 127, 2-(4-chloro-3-fluorophenoxy)-N-{(1r,4r)-4-[4-(4-chlorophenyl)piperazine-1-carbonyl]cyclohexyl}acetamide]: the EC50 is greater than 2000 nM. In the case of `O=C(COc1ccc(Cl)c(F)c1)N[C@H]1CC[C@H](C(=O)N2CCC(c3ccc(Cl)cc3)CC2)CC1` [Compound 128, 2-(4-chloro-3-fluorophenoxy)-N-{(1r,4r)-4-[4-(4-chlorophenyl)piperidine-1-carbonyl]cyclohexyl}acetamide] it was greater than 2000 nM. With `O=C(COc1ccc(Cl)c(F)c1)N[C@H]1CC[C@H](C(=O)N2CC(c3ccc(Cl)cc3)C2)CC1` [Compound 129, 2-(4-chloro-3-fluorophenoxy)-N-{(1r,4r)-4-[3-(4-chlorophenyl)azetidine-1-carbonyl]cyclohexyl}acetamide], the EC50 is less than 10 nM. Consider `O=C(COc1ccc(Cl)c(F)c1)N[C@H]1CC[C@H](C(=O)N2CC(O)(c3ccc(Cl)cc3)C2)CC1` [Compound 130, 2-(4-chloro-3-fluorophenoxy)-N-{(1r,4r)-4-[3-(4-chlorophenyl)-3-hydroxyazetidine-1-carbonyl]cyclohexyl}acetamide], for which the 50% effective concentration (EC50) lay in the range of 50 to 250 nM. In the case of `O=C(COc1ccc(Cl)c(F)c1)N[C@H]1CC[C@H](C(=O)N2CC(c3ccccc3)C2)CC1` [Compound 131, 2-(4-chloro-3-fluorophenoxy)-N-[(1r,4r)-4-(3-phenylazetidine-1-carbonyl)cyclohexyl]acetamide] it was 10 to 50 nM. `O=C(COc1ccc(Cl)c(F)c1)N[C@H]1CC[C@H](C(=O)N2Cc3ccc(Cl)cc3C2)CC1` [Compound 132, N-[(1r,4r)-4-(5-chloro-1,3-dihydro-2H-isoindole-2-carbonyl)cyclohexyl]-2-(4-chloro-3-fluorophenoxy)acetamide]: the EC50 fell in the range of 10 to 50 nM. For `O=C(COc1ccc(Cl)c(F)c1)N[C@H]1CC[C@@H](C(=O)N2CC(c3ccc(Cl)cc3)C2)CC1` [Compound 133, 2-(4-chloro-3-fluorophenoxy)-N-{(1s,4s)-4-[3-(4-chlorophenyl)azetidine-1-carbonyl]cyclohexyl}acetamide], the EC50 is greater than 2000 nM. Consider `O=C(COc1ccc(Cl)c(F)c1)N[C@@H]1CC[C@@H](C(=O)N2CC(c3ccc(C(F)(F)F)cc3)C2)OC1` [Compound 134, 2-(4-chloro-3-fluorophenoxy)-N-[(3R,6S)-6-{3-[4-(trifluoromethyl)phenyl]azetidine-1-carbonyl}oxan-3-yl]acetamide], for which the EC50 is less than 10 nM.

For `O=C(COc1ccc(Cl)c(F)c1)N[C@@H]1CC[C@@H](C(=O)NCc2nc(C(F)(F)F)c[nH]2)OC1` [Compound 135, (2S,5R)-5-[2-(4-chloro-3-fluorophenoxy)acetamido]-N-{[4-(trifluoromethyl)-1H-imidazol-2-yl]methyl}oxane-2-carboxamide], the EC50 was 50 to 250 nM. With `Cc1cc(CNC(=O)[C@@H]2CC[C@@H](NC(=O)COc3ccc(Cl)c(F)c3)CO2)n(C)n1` [Compound 136, (2S,5R)-5-[2-(4-chloro-3-fluorophenoxy)acetamido]-N-[(1,3-dimethyl-1H-pyrazol-5-yl)methyl]oxane-2-carboxamide], the EC50 is greater than 2000 nM.

As for `O=C(COc1ccc(Cl)c(F)c1)N[C@@H]1CC[C@@H](C(=O)NCCOc2ccc(Cl)cc2)OC1` [Compound 137, (2S,5R)-5-[2-(4-chloro-3-fluorophenoxy)acetamido]-N-[2-(4-chlorophenoxy)ethyl]oxane-2-carboxamide], the 50% effective concentration (EC50) was 10 to 50 nM. Consider `O=C(COc1ccc(Cl)c(F)c1)N[C@@H]1CC[C@@H](C(=O)NCc2cn3ccc(Cl)cc3n2)OC1` [Compound 138, (2S,5R)-5-[2-(4-chloro-3-fluorophenoxy)acetamido]-N-[(7-chloroimidazo[1,2-a]pyridin-2-yl)methyl]oxane-2-carboxamide], for which the EC50 lay in the range of 10 to 50 nM.

For `O=C(COc1ccc(Cl)c(F)c1)N[C@@H]1CC[C@@H](C(=O)NCc2cnc(C(F)(F)F)nc2)OC1` [Compound 139, (2S,5R)-5-[2-(4-chloro-3-fluorophenoxy)acetamido]-N-{[2-(trifluoromethyl)pyrimidin-5-yl]methyl}oxane-2-carboxamide], the EC50 is 250 to 500 nM. On to `COc1ncc(CNC(=O)[C@@H]2CC[C@@H](NC(=O)COc3ccc(Cl)c(F)c3)CO2)cn1` [Compound 140, (2S,5R)-5-[2-(4-chloro-3-fluorophenoxy)acetamido]-N-[(2-methoxypyrimidin-5-yl)methyl]oxane-2-carboxamide], for which the EC50 is greater than 2000 nM. `O=C(COc1ccc(Cl)c(F)c1)N[C@@H]1CC[C@@H](C(=O)NC2(c3ccc(Cl)cc3)CC2)OC1` [Compound 141, (2S,5R)-5-[2-(4-chloro-3-fluorophenoxy)acetamido]-N-[1-(4-chlorophenyl)cyclopropyl]oxane-2-carboxamide]: the concentration giving a half-maximal response (EC50) was greater than 2000 nM. As to `O=C(COc1ccc(Cl)c(F)c1)N[C@@H]1CC[C@@H](C(=O)NCc2cc3cc(Cl)ccc3[nH]2)OC1` [Compound 142, (2S,5R)-5-[2-(4-chloro-3-fluorophenoxy)acetamido]-N-[(5-chloro-1H-indol-2-yl)methyl]oxane-2-carboxamide], the EC50 was 50 to 250 nM.

Consider `O=C(COc1ccc(Cl)c(F)c1)N[C@@H]1CC[C@@H](C(=O)N2CCC(c3ccc(Cl)cc3)C2)OC1` (stereo partly drawn) [Compound 143, 2-(4-chloro-3-fluorophenoxy)-N-{(3R,6S)-6-[3-(4-chlorophenyl)pyrrolidine-1-carbonyl]oxan-3-yl}acetamide], for which the EC50 was 500 to 2000 nM. In the case of `O=C(COc1ccc(Cl)c(F)c1)N[C@@H]1CC[C@@H](C(=O)N2CCn3c(nnc3C(F)(F)F)C2)OC1` [Compound 144, 2-(4-chloro-3-fluorophenoxy)-N-{(3R,6S)-6-[3-(trifluoromethyl)-5,6-dihydro[1,2,4]triazolo[4,3-a]pyrazine-7(8H)-carbonyl]oxan-3-yl}acetamide], the 50% effective concentration (EC50) is greater than 2000 nM. Consider `O=C(COc1ccc(Cl)c(F)c1)N[C@@H]1CC[C@@H](C(=O)Nc2nccc(-c3ccc(Cl)c(F)c3)n2)OC1` [Compound 145, (2S,5R)-5-[2-(4-chloro-3-fluorophenoxy)acetamido]-N-[4-(4-chloro-3-fluorophenyl)pyrimidin-2-yl]oxane-2-carboxamide], for which the EC50 was in the range of 500 to 2000 nM. As for `O=C(COc1ccc(Cl)c(F)c1)N[C@@H]1CC[C@@H](C(=O)NCCc2ccc(Cl)cc2)OC1` [Compound 146, (2S,5R)-5-[2-(4-chloro-3-fluorophenoxy)acetamido]-N-[2-(4-chlorophenyl)ethyl]oxane-2-carboxamide], the EC50 was 50 to 250 nM. On to `O=C(COc1ccc(C(F)(F)F)nc1)N[C@H]1CC[C@H](C(=O)NCc2nc3cc(Cl)ccc3[nH]2)CC1` [Compound 147, (1r,4r)-N-[(5-chloro-1H-benzimidazol-2-yl)methyl]-4-(2-{[6-(trifluoromethyl)pyridin-3-yl]oxy}acetamido)cyclohexane-1-carboxamide], for which the EC50 was greater than 2000 nM. For the compound `O=C(COc1ccc2c(c1)OC(F)(F)O2)N[C@H]1CC[C@H](C(=O)NCc2nc3cc(Cl)ccc3[nH]2)CC1` [Compound 148, (1r,4r)-N-[(5-chloro-1H-benzimidazol-2-yl)methyl]-4-{2-[(2,2-difluoro-2H-1,3-benzodioxol-5-yl)oxy]acetamido}cyclohexane-1-carboxamide], the EC50 was 50 to 250 nM. In the case of `O=C(COc1ccc(F)c(F)c1)N[C@H]1CC[C@H](C(=O)NCc2nc3cc(Cl)ccc3[nH]2)CC1` [Compound 149, (1r,4r)-N-[(5-chloro-1H-benzimidazol-2-yl)methyl]-4-[2-(3,4-difluorophenoxy)acetamido]cyclohexane-1-carboxamide], the EC50 fell in the range of 50 to 250 nM. As to `O=C(COc1ccc(Cl)c(F)c1)N[C@H]1CC[C@H](C(=O)NCc2nc3cc(Cl)ccc3[nH]2)CC1` [Compound 150, (1r,4r)-N-[(5-chloro-1H-benzimidazol-2-yl)methyl]-4-[2-(4-chloro-3-fluorophenoxy)acetamido]cyclohexane-1-carboxamide], the EC50 was in the range of 10 to 50 nM.

Regarding `O=C(COc1ccc(Cl)c(Cl)c1)N[C@H]1CC[C@H](C(=O)NCc2nc3cc(F)c(F)cc3[nH]2)CC1` [Compound 152, (1r,4r)-4-[2-(3,4-dichlorophenoxy)acetamido]-N-[(5,6-difluoro-1H-benzimidazol-2-yl)methyl]cyclohexane-1-carboxamide], the concentration giving a half-maximal response (EC50) was greater than 2000 nM. Take `O=C(COc1ccc(Cl)c(F)c1)N[C@H]1CC[C@H](C(=O)NCc2nc3cc(F)c(F)cc3[nH]2)CC1` [Compound 153, (1r,4r)-4-[2-(4-chloro-3-fluorophenoxy)acetamido]-N-[(5,6-difluoro-1H-benzimidazol-2-yl)methyl]cyclohexane-1-carboxamide]: the EC50 is greater than 2000 nM.

These data come from patent publication US11939320B2, “Modulators of the integrated stress pathway” (Calico Life Sciences LLC, priority 2017, dated 2024).
